According to patent publication US10729738B2, “Hindered disulfide drug conjugates” (priority 2015, dated 2020):
Where a SMILES comes first, the peptide text is derived from it. [ ]: non-standard residue; d: D form. The star is where a group is joined. X14 = CC(C)(COC(=O)*)SSc1nc2cc([N+](=O)[O-])ccc2[nH]1; X6 = CC(C)(COC(=O)*)SSc1nc2c([N+](=O)[O-])cccc2[nH]1; Dolaproine = CO[C@@H]([C@@H]1CCCN1)[C@@H](C)C(=O)O; X11 = CC(C)(COC(=O)*)SSc1nc2ccc(C(=O)O)cc2[nH]1; X22 = CC(C)(COC(=O)*)SSc1nc2cccc(C(=O)O)c2[nH]1; X3 = CC(C)(COC(=O)*)SSc1ccc([N+](=O)[O-])cn1; Dil = CC[C@H](C)[C@H](NC)[C@@H](CC(=O)O)OC; X16 = CN(C)C(=O)c1cnccc1SSC(C)(C)COC(=O)*; X4 = CC(C)(COC(=O)*)SSc1nc2ncnc(N)c2[nH]1; X10 = CC(C)(COC(=O)*)SSc1nc2ncncc2[nH]1; X12 = Cn1c(C(=O)O)cnc1SSC(C)(C)COC(=O)*; X13 = CC(C)(COC(=O)*)SSc1nc2cnccc2[nH]1; X17 = Cn1c(SSC(C)(C)COC(=O)*)nc2ccccc21; X19 = Cn1cc(C(=O)O)nc1SSC(C)(C)COC(=O)*; X5 = CC(C)(COC(=O)*)SSc1nc2ncccc2[nH]1; X7 = CC(C)(COC(=O)*)SSc1nc2ccccc2[nH]1; X8 = CC(C)(COC(=O)*)SSc1nc2nccnc2[nH]1; X2 = C[C@@H](N*)[C@@H](O)c1ccccc1; X21 = CC(C)(COC(=O)*)SSc1ncc[nH]1; X9 = CC(C)(COC(=O)*)SSc1nnn[nH]1; X20 = Cn1cnnc1SSC(C)(C)COC(=O)*; X1 = Cn1nnnc1SSC(C)(C)COC(=O)*; X18 = CC(C)(COC(=O)*)SSC(=N)N; NMeV = CN[C@H](C(=O)O)C(C)C

Assays:
[1] = target: human serum albumin Cys-34 (Homo sapiens, UniProt P02768); assay: Conjugation of activated disulfide-MMAE molecules to human serum albumin (Conjugate Ratio, LC/MS); conditions: disulfide MMAE compound at 10 molar equivalents relative to HSA, 75 mM Tris pH 8.5, ~16 hours at room temperature
human serum albumin Cys-34, sequence (P02768 25-609): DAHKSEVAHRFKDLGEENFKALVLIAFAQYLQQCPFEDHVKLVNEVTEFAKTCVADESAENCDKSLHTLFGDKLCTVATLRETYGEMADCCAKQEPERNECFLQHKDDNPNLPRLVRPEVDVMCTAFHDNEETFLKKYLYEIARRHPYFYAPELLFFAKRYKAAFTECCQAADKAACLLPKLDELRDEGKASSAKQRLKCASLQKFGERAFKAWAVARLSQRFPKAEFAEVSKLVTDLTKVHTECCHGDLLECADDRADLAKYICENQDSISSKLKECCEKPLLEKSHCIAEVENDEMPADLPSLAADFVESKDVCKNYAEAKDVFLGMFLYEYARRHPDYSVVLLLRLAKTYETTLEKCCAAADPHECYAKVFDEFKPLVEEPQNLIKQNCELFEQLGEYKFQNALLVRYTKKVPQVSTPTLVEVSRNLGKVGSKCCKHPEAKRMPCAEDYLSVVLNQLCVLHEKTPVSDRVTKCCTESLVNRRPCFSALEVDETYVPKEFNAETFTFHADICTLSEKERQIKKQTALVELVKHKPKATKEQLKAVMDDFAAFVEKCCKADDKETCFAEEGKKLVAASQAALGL
Protocol: In a first evaluation, MMAE was conjugated to human serum albumin (HSA). […] This Cys residue is blocked as a mixed disulfide with Cys or glutathione, preventing complete conjugation of other molecules to this residue. […] Conjugate reactions were analyzed by LC/MS. The extent of the expected MMAE-HSA conjugate formed during the reaction is represented by the “Conjugate Ratio”, measured by dividing the abundance of the MS peak for the MMAE-HSA conjugate by the sum total abundance of all peaks observed. The ideal value for the Conjugate Ratio is 1.0. The results are reported in table 31 below wherein the wavy line for the leaving group represents the point of attachment to the disulfide bond, and “HSA CR” refers to human serum albumin conjugate ratio.

[2] = target: T1, penetratin (AntP) peptide (Drosophila melanogaster, UniProt P02833); assay: Conjugation of activated disulfide-MMAE molecules to penetratin (AntP) peptide (% Product); conditions: peptide 25 uM, disulfide MMAE 5 equivalents, 75 mM Tris pH 8.5 and 10% DMF, ~16 hours at room temperature, UV peak area
T1 construct: C-terminal amide (CONH2); made in house; host or cells: chemical synthesis (Fmoc solid-phase peptide synthesis)
Protocol: In a second evaluation, MMAE was conjugated to penetratin (AntP) peptide. The AntP peptide, with sequence H2N-[…]-CONH2 (SEQ ID NO:1) bearing a free Cys thiol at the C-terminus, was synthesized via standard Fmoc solid-phase peptide synthesis methods. This peptide was conjugated at a concentration of 25 uM to disulfide MMAE molecules with varying leaving groups (5 equivalents) in a buffered solution composed of 75 mM Tris, pH 8.5 and 10% DMF for ˜16 hours at room temperature. Extent of the reaction was measured by dividing the integrated area for the UV peak of the MMAE-AntP conjugate by the sum of all peaks (“% Product”). The ideal value for % Product is 100%. The results are reported in table 31 below wherein the wavy line for the leaving group represent the point of attachment to the disulfide bond, and “AntP % P” refers to penetratin (AntP) peptide % product.

pKa (pKa of thiol compounds)	Compound	HAS CR (HSA Conjugation Ratio) [1]	AntP % P (penetratin (AntP) peptide % product) [2] [%]
–	CC[C@H](C)[C@@H]([C@@H](CC(=O)N1CCC[C@H]1[C@H](OC)[C@@H](C)C(=O)N[C@H](C)[C@@H](O)c1ccccc1)OC)N(C)C(=O)[C@@H](NC(=O)[C@H](C(C)C)N(C)C(=O)OCC(C)(C)SSc1nc2ccc(C(=O)O)cc2[nH]1)C(C)C (X11-[NMeV]V[Dil][Dolaproine]-X2)	0.64	20
–	CC[C@H](C)[C@@H]([C@@H](CC(=O)N1CCC[C@H]1[C@H](OC)[C@@H](C)C(=O)N[C@H](C)[C@@H](O)c1ccccc1)OC)N(C)C(=O)[C@@H](NC(=O)[C@H](C(C)C)N(C)C(=O)OCC(C)(C)SSc1nc2ncncc2[nH]1)C(C)C (X10-[NMeV]V[Dil][Dolaproine]-X2)	0.6	34
–	CC[C@H](C)[C@@H]([C@@H](CC(=O)N1CCC[C@H]1[C@H](OC)[C@@H](C)C(=O)N[C@H](C)[C@@H](O)c1ccccc1)OC)N(C)C(=O)[C@@H](NC(=O)[C@H](C(C)C)N(C)C(=O)OCC(C)(C)SSc1ccc([N+](=O)[O-])cn1)C(C)C (X3-[NMeV]V[Dil][Dolaproine]-X2)	0.11	14
–	CC[C@H](C)[C@@H]([C@@H](CC(=O)N1CCC[C@H]1[C@H](OC)[C@@H](C)C(=O)N[C@H](C)[C@@H](O)c1ccccc1)OC)N(C)C(=O)[C@@H](NC(=O)[C@H](C(C)C)N(C)C(=O)OCC(C)(C)SSc1nc(C(=O)O)cn1C)C(C)C (X19-[NMeV]V[Dil][Dolaproine]-X2)	0.38	4.9
4.7 to 4.8	O=[N+]([O-])c1ccc(S)nc1 [Compound 5, para-nitropyridyl thiol]	–	–
–	CC[C@H](C)[C@@H]([C@@H](CC(=O)N1CCC[C@H]1[C@H](OC)[C@@H](C)C(=O)N[C@H](C)[C@@H](O)c1ccccc1)OC)N(C)C(=O)[C@@H](NC(=O)[C@H](C(C)C)N(C)C(=O)OCC(C)(C)SSc1nc2cccc(C(=O)O)c2[nH]1)C(C)C (X22-[NMeV]V[Dil][Dolaproine]-X2)	0.34	25
–	CC[C@H](C)[C@@H]([C@@H](CC(=O)N1CCC[C@H]1[C@H](OC)[C@@H](C)C(=O)N[C@H](C)[C@@H](O)c1ccccc1)OC)N(C)C(=O)[C@@H](NC(=O)[C@H](C(C)C)N(C)C(=O)OCC(C)(C)SSc1nc2cnccc2[nH]1)C(C)C (X13-[NMeV]V[Dil][Dolaproine]-X2)	0.86	26
–	CC[C@H](C)[C@@H]([C@@H](CC(=O)N1CCC[C@H]1[C@H](OC)[C@@H](C)C(=O)N[C@H](C)[C@@H](O)c1ccccc1)OC)N(C)C(=O)[C@@H](NC(=O)[C@H](C(C)C)N(C)C(=O)OCC(C)(C)SSC(=N)N)C(C)C (X18-[NMeV]V[Dil][Dolaproine]-X2)	0.98	90
–	CC[C@H](C)[C@@H]([C@@H](CC(=O)N1CCC[C@H]1[C@H](OC)[C@@H](C)C(=O)N[C@H](C)[C@@H](O)c1ccccc1)OC)N(C)C(=O)[C@@H](NC(=O)[C@H](C(C)C)N(C)C(=O)OCC(C)(C)SSc1nnn[nH]1)C(C)C (X9-[NMeV]V[Dil][Dolaproine]-X2)	0.09	1.9
–	CC[C@H](C)[C@@H]([C@@H](CC(=O)N1CCC[C@H]1[C@H](OC)[C@@H](C)C(=O)N[C@H](C)[C@@H](O)c1ccccc1)OC)N(C)C(=O)[C@@H](NC(=O)[C@H](C(C)C)N(C)C(=O)OCC(C)(C)SSc1nc2cc([N+](=O)[O-])ccc2[nH]1)C(C)C (X14-[NMeV]V[Dil][Dolaproine]-X2)	0.69	26
–	CC[C@H](C)[C@@H]([C@@H](CC(=O)N1CCC[C@H]1[C@H](OC)[C@@H](C)C(=O)N[C@H](C)[C@@H](O)c1ccccc1)OC)N(C)C(=O)[C@@H](NC(=O)[C@H](C(C)C)N(C)C(=O)OCC(C)(C)SSc1nc2ccccc2n1C)C(C)C (X17-[NMeV]V[Dil][Dolaproine]-X2)	0.87	7.5
–	CC[C@H](C)[C@@H]([C@@H](CC(=O)N1CCC[C@H]1[C@H](OC)[C@@H](C)C(=O)N[C@H](C)[C@@H](O)c1ccccc1)OC)N(C)C(=O)[C@@H](NC(=O)[C@H](C(C)C)N(C)C(=O)OCC(C)(C)SSc1nnnn1C)C(C)C (X1-[NMeV]V[Dil][Dolaproine]-X2)	0.86	32
–	CC[C@H](C)[C@@H]([C@@H](CC(=O)N1CCC[C@H]1[C@H](OC)[C@@H](C)C(=O)N[C@H](C)[C@@H](O)c1ccccc1)OC)N(C)C(=O)[C@@H](NC(=O)[C@H](C(C)C)N(C)C(=O)OCC(C)(C)SSc1ncc[nH]1)C(C)C (X21-[NMeV]V[Dil][Dolaproine]-X2)	0.99	1.7
–	CC[C@H](C)[C@@H]([C@@H](CC(=O)N1CCC[C@H]1[C@H](OC)[C@@H](C)C(=O)N[C@H](C)[C@@H](O)c1ccccc1)OC)N(C)C(=O)[C@@H](NC(=O)[C@H](C(C)C)N(C)C(=O)OCC(C)(C)SSc1nc2nccnc2[nH]1)C(C)C (X8-[NMeV]V[Dil][Dolaproine]-X2)	0.63	36
–	CC[C@H](C)[C@@H]([C@@H](CC(=O)N1CCC[C@H]1[C@H](OC)[C@@H](C)C(=O)N[C@H](C)[C@@H](O)c1ccccc1)OC)N(C)C(=O)[C@@H](NC(=O)[C@H](C(C)C)N(C)C(=O)OCC(C)(C)SSc1nc2ncccc2[nH]1)C(C)C (X5-[NMeV]V[Dil][Dolaproine]-X2)	0.84	12
–	CC[C@H](C)[C@@H]([C@@H](CC(=O)N1CCC[C@H]1[C@H](OC)[C@@H](C)C(=O)N[C@H](C)[C@@H](O)c1ccccc1)OC)N(C)C(=O)[C@@H](NC(=O)[C@H](C(C)C)N(C)C(=O)OCC(C)(C)SSc1nncn1C)C(C)C (X20-[NMeV]V[Dil][Dolaproine]-X2)	0.66	17
–	CC[C@H](C)[C@@H]([C@@H](CC(=O)N1CCC[C@H]1[C@H](OC)[C@@H](C)C(=O)N[C@H](C)[C@@H](O)c1ccccc1)OC)N(C)C(=O)[C@@H](NC(=O)[C@H](C(C)C)N(C)C(=O)OCC(C)(C)SSc1nc2ccccc2[nH]1)C(C)C (X7-[NMeV]V[Dil][Dolaproine]-X2)	0.52	18
–	CC[C@H](C)[C@@H]([C@@H](CC(=O)N1CCC[C@H]1[C@H](OC)[C@@H](C)C(=O)N[C@H](C)[C@@H](O)c1ccccc1)OC)N(C)C(=O)[C@@H](NC(=O)[C@H](C(C)C)N(C)C(=O)OCC(C)(C)SSc1nc2ncnc(N)c2[nH]1)C(C)C (X4-[NMeV]V[Dil][Dolaproine]-X2)	0.23	21
–	CC[C@H](C)[C@@H]([C@@H](CC(=O)N1CCC[C@H]1[C@H](OC)[C@@H](C)C(=O)N[C@H](C)[C@@H](O)c1ccccc1)OC)N(C)C(=O)[C@@H](NC(=O)[C@H](C(C)C)N(C)C(=O)OCC(C)(C)SSc1ncc(C(=O)O)n1C)C(C)C (X12-[NMeV]V[Dil][Dolaproine]-X2)	0.55	4
–	CC[C@H](C)[C@@H]([C@@H](CC(=O)N1CCC[C@H]1[C@H](OC)[C@@H](C)C(=O)N[C@H](C)[C@@H](O)c1ccccc1)OC)N(C)C(=O)[C@@H](NC(=O)[C@H](C(C)C)N(C)C(=O)OCC(C)(C)SSc1nc2c([N+](=O)[O-])cccc2[nH]1)C(C)C (X6-[NMeV]V[Dil][Dolaproine]-X2)	0.65	26
–	CC[C@H](C)[C@@H]([C@@H](CC(=O)N1CCC[C@H]1[C@H](OC)[C@@H](C)C(=O)N[C@H](C)[C@@H](O)c1ccccc1)OC)N(C)C(=O)[C@@H](NC(=O)[C@H](C(C)C)N(C)C(=O)OCC(C)(C)SSc1ccncc1C(=O)N(C)C)C(C)C (X16-[NMeV]V[Dil][Dolaproine]-X2)	0.22	51
